In patent publication US20220265629A1, “TREATMENT OF SYSTOLIC DYSFUNCTION AND HEART FAILURE WITH REDUCED EJECTION FRACTION WITH THE COMPOUND (R)-4-(1-((3-(DIFLUOROMETHYL)-1-METHYL-1H-PYRAZOL-4-YL)SULFONYL)-1-FLUOROETHYL)-N-(ISOXAZOL-3-YL)PIPERIDINE-1-CARBOXAMIDE” (MyoKardia, Inc., priority 2019, published 2022):
Where two headings read alike, the source gives them in different places.

Experiment: Single ascending oral dose study in healthy volunteers: plasma pharmacokinetics
Assay type: in vivo, human
Conditions: plasma, oral; for concentration at 6 h / concentration at 12 h / concentration at 24 h / concentration at 48 h / concentration at 72 h / AUC(0-t) / AUC(0-inf) / Cmax / half-life / MRT / Tmax / Vd/F: human; for concentration at 12 h: 12 Hours Postdose; for concentration at 24 h: 24 Hours Postdose; for concentration at 48 h: 48 Hours Postdose; for concentration at 72 h: 72 Hours Postdose
From the text: This example describes the first-in-human study of Compound I. Based on its mechanism of action, Compound I may offer a targeted therapy for patients with DCM caused by genetic or nongenetic mechanisms. The study was a randomized, double-blind, placebo-controlled, sequential group, single-ascending (oral) close study in healthy subjects aged 18-55 years. Eight dosing cohorts, each comprising eight healthy subjects, were enrolled. Within each cohort, subjects were randomized 6:2 to Compound I:placebo.
Subjects were resident at the clinical site for up to 5 days and 4 nights, from Day −1 (the day before dosing) to Day 4, and received a single dose of Compound I or placebo on Day 1. ECG telemetry was initiated 1 hour preclose and continued through 48 hours postclose (Day 3). Any subject with a preclose resting HR≥80 beats per minute was considered ineligible and not treated. […] Subjects returned for a safety follow-up visit 7 days (±1 day) after dosing.
All randomized study subjects received either Compound I or matching placebo as a single oral dose after a fasting period of at least 6 hours. Compound I drug substance is a crystalline, free-base, synthetic molecule with a molecular weight of 435.4 g/mol.
Compound I was provided as a powder for oral suspension. Placebo was provided as calcium carbonate powder. Both treatments were closed orally as a suspension. The suspension was made using Ora-Plus® suspending vehicle (Perrigo) and a cherry syrup flavoring vehicle (Humco), mixed 50% to 50%. The suspension was followed by approximately 100 mL water. The suspension was made up within 14 days from the time in which it was closed which was consistent with the stability data on the suspension. The suspension was made up so the volume administered to the subjects who received Compound I was the same at 20 mL.
Each subject received a close according to the cohort in which they were enrolled. Cohorts were enrolled sequentially, with each cohort receiving an escalated dose of Compound I. The closes administered were 3 mg, 10 mg, 25 mg, 50 mg, 100 mg, 175 mg, 350 mg, and 525 mg, respectively.
The concentrations of Compound I in human plasma and urine were quantitated by high performance liquid chromatography with tandem mass spectrometric detection (LC MS/MS) (Biological sample analysis study report Alturas AD17-726). Plasma samples were extracted by protein precipitation with acetonitrile containing internal standard MYK-5654. The calibration curves were linear over concentration range of 0.500 to 1000 ng/mL with a lower limit of quantification (LLOQ) of 0.500 ng/mL.
The PK Population included all subjects who received Compound I. Blood samples were collected for PK assessments. The actual timing of the samples may have been modified and/or up to an additional 2 samples may have been requested by the SRC after review of the data from previous cohorts. It was important that PK sampling occurred as closely as possible to the scheduled time (±10%). Both blood and urine samples were used for PK assessments.
In addition, for subjects who received placebo, a single plasma sample near the predicted tmax of Compound I was evaluated to confirm the lack of circulating Compound I. Plasma concentration data for Compound I was summarized using descriptive statistics, including mean, standard deviation (SD), median, minimum, and maximum values, and percent coefficient of variation. Other PK parameters included (but were not limited to) Cmax, tmax, AUC, t1/2, and MRT. Additionally, the apparent terminal-phase terminal half-life was calculated. The close proportionality of AUC and Cmax was explored.

[1] = 350 mg, 350 mg, read-out: Plasma concentration, Geometric Mean
[2] = 350 mg, 350 mg, read-out: Plasma concentration, Mean
[3] = 350 mg, 350 mg, read-out: Plasma concentration, Median
[4] = 525 mg, 525 mg, read-out: Plasma concentration, Geometric Mean
[5] = 525 mg, 525 mg, read-out: Plasma concentration, Mean
[6] = 525 mg, 525 mg, read-out: Plasma concentration, Median
[7] = 350 mg + 525 mg, read-out: Plasma concentration, Geometric Mean
[8] = 350 mg + 525 mg, read-out: Plasma concentration, Mean
[9] = 350 mg + 525 mg, read-out: Plasma concentration, Median

Cn1cc(S(=O)(=O)[C@@](C)(F)C2CCN(C(=O)Nc3ccon3)CC2)c(C(F)F)n1 [Compound I, (R)-4-(1-((3-(difluoromethyl)-1-methyl-1H-pyrazol-4-yl)sulfonyl)-1-fluoroethyl)-N-(isoxazol-3-yl)piperidine-1-carboxamide]
concentration at 6 h (350 mg, 6 Hours Postdose, 350 mg, read-out: Plasma concentration, Mean): 2660 ng/mL
concentration at 6 h (350 mg, 6 Hours Postdose, 350 mg, read-out: Plasma concentration, Median): 2550 ng/mL
concentration at 12 h [1]: 2090 ng/mL
concentration at 12 h [2]: 2140 ng/mL
concentration at 12 h [3]: 2120 ng/mL
concentration at 24 h [1]: 1280 ng/mL
concentration at 24 h [2]: 1320 ng/mL
concentration at 24 h [3]: 1340 ng/mL
concentration at 48 h [1]: 329 ng/mL
concentration at 48 h [2]: 373 ng/mL
concentration at 48 h [3]: 350 ng/mL
concentration at 72 h [1]: 101 ng/mL
concentration at 72 h [2]: 128 ng/mL
concentration at 72 h [3]: 111 ng/mL
AUC(0-t) (350 mg, read-out: AUC0-24, Geometric Mean): 44700 ng·h/mL
AUC(0-t) (350 mg, read-out: AUC0-24, Mean): 45600 ng·h/mL
AUC(0-t) (350 mg, read-out: AUC0-24, Median): 45000 ng·h/mL
AUC(0-t) (350 mg, read-out: AUC0-48, Geometric Mean): 64200 ng·h/mL
AUC(0-t) (350 mg, read-out: AUC0-48, Mean): 65900 ng·h/mL
AUC(0-t) (350 mg, read-out: AUC0-48, Median): 66400 ng·h/mL
AUC(0-t) (350 mg, read-out: AUC0-last, Geometric Mean): 73200 ng·h/mL
AUC(0-t) (350 mg, read-out: AUC0-last, Mean): 76300 ng·h/mL
AUC(0-t) (350 mg, read-out: AUC0-last, Median): 76200 ng·h/mL
AUC(0-inf) (350 mg, read-out: AUC0-∞, Geometric Mean): 73600 ng·h/mL
AUC(0-inf) (350 mg, read-out: AUC0-∞, Mean): 76700 ng·h/mL
AUC(0-inf) (350 mg, read-out: AUC0-∞, Median): 76200 ng·h/mL
Cmax (350 mg, read-out: Cmax, Geometric Mean): 2790 ng/mL
Cmax (350 mg, read-out: Cmax, Mean): 2820 ng/mL
Cmax (350 mg, read-out: Cmax, Median): 2900 ng/mL
half-life (350 mg, read-out: Half-Life Lambda Z, Geometric Mean (converted)): 14.3 h
half-life (350 mg, read-out: Half-Life Lambda Z, Mean (converted)): 14.7 h
half-life (350 mg, read-out: Half-Life Lambda Z, Median (converted)): 14.5 h
MRT (350 mg, read-out: Mean Residence Time, Geometric Mean): 22.4 h
MRT (350 mg, read-out: Mean Residence Time, Mean): 22.8 h
MRT (350 mg, read-out: Mean Residence Time, Median): 22.7 h
Tmax (350 mg, read-out: Tmax, Geometric Mean): 4.84 h
Tmax (350 mg, read-out: Tmax, Mean): 4.95 h
Tmax (350 mg, read-out: Tmax, Median): 5 h
Vd/F (350 mg, read-out: Vz/F, Geometric Mean): 98.3 L
Vd/F (350 mg, read-out: Vz/F, Mean): 98.8 L
Vd/F (350 mg, read-out: Vz/F, Median): 98.4 L
concentration at 6 h (525 mg, 6 Hours Postdose, 525 mg, read-out: Plasma concentration, Geometric Mean): 2160 ng/mL
concentration at 6 h (525 mg, 6 Hours Postdose, 525 mg, read-out: Plasma concentration, Mean): 2220 ng/mL
concentration at 6 h (525 mg, 6 Hours Postdose, 525 mg, read-out: Plasma concentration, Median): 2220 ng/mL
concentration at 12 h [4]: 1780 ng/mL
concentration at 12 h [5]: 1840 ng/mL
concentration at 12 h [6]: 1780 ng/mL
concentration at 24 h [4]: 1190 ng/mL
concentration at 24 h [5]: 1230 ng/mL
concentration at 24 h [6]: 1180 ng/mL
concentration at 48 h [4]: 420 ng/mL
concentration at 48 h [5]: 465 ng/mL
concentration at 48 h [6]: 426 ng/mL
concentration at 72 h [4]: 116 ng/mL
concentration at 72 h [5]: 147 ng/mL
concentration at 72 h [6]: 122 ng/mL
AUC(0-t) (525 mg, read-out: AUC0-24, Geometric Mean): 37500 ng·h/mL
AUC(0-t) (525 mg, read-out: AUC0-24, Mean): 38500 ng·h/mL
AUC(0-t) (525 mg, read-out: AUC0-24, Median): 38200 ng·h/mL
AUC(0-t) (525 mg, read-out: AUC0-48, Geometric Mean): 57000 ng·h/mL
AUC(0-t) (525 mg, read-out: AUC0-48, Mean): 58900 ng·h/mL
AUC(0-t) (525 mg, read-out: AUC0-48, Median): 57400 ng·h/mL
AUC(0-t) (525 mg, read-out: AUC0-last, Geometric Mean): 68100 ng·h/mL
AUC(0-t) (525 mg, read-out: AUC0-last, Mean): 71700 ng·h/mL
AUC(0-t) (525 mg, read-out: AUC0-last, Median): 68600 ng·h/mL
AUC(0-inf) (525 mg, read-out: AUC0-∞, Geometric Mean): 68500 ng·h/mL
AUC(0-inf) (525 mg, read-out: AUC0-∞, Mean): 72100 ng·h/mL
AUC(0-inf) (525 mg, read-out: AUC0-∞, Median): 68800 ng·h/mL
Cmax (525 mg, read-out: Cmax, Geometric Mean): 2290 ng/mL
Cmax (525 mg, read-out: Cmax, Mean): 2350 ng/mL
Cmax (525 mg, read-out: Cmax, Median): 2240 ng/mL
half-life (525 mg, read-out: Half-Life Lambda Z, Geometric Mean (converted)): 14.7 h
half-life (525 mg, read-out: Half-Life Lambda Z, Mean (converted)): 15.1 h
half-life (525 mg, read-out: Half-Life Lambda Z, Median (converted)): 13.8 h
MRT (525 mg, read-out: Mean Residence Time, Geometric Mean): 25.4 h
MRT (525 mg, read-out: Mean Residence Time, Mean): 25.8 h
MRT (525 mg, read-out: Mean Residence Time, Median): 25 h
Tmax (525 mg, read-out: Tmax, Geometric Mean): 4.94 h
Tmax (525 mg, read-out: Tmax, Mean): 4.97 h
Tmax (525 mg, read-out: Tmax, Median): 5 h
Vd/F (525 mg, read-out: Vz/F, Geometric Mean): 162 L
Vd/F (525 mg, read-out: Vz/F, Mean): 166 L
Vd/F (525 mg, read-out: Vz/F, Median): 171 L
concentration at 6 h (6 Hours Postdose, 350 mg + 525 mg, read-out: Plasma concentration, Geometric Mean): 2380 ng/mL
concentration at 6 h (6 Hours Postdose, 350 mg + 525 mg, read-out: Plasma concentration, Mean): 2440 ng/mL
concentration at 6 h (6 Hours Postdose, 350 mg + 525 mg, read-out: Plasma concentration, Median): 2350 ng/mL
concentration at 12 h [7]: 1930 ng/mL
concentration at 12 h [8]: 1990 ng/mL
concentration at 12 h [9]: 1860 ng/mL
concentration at 24 h [7]: 1230 ng/mL
concentration at 24 h [8]: 1280 ng/mL
concentration at 24 h [9]: 1210 ng/mL
concentration at 48 h [7]: 372 ng/mL
concentration at 48 h [8]: 419 ng/mL
concentration at 48 h [9]: 415 ng/mL
concentration at 72 h [7]: 108 ng/mL
concentration at 72 h [8]: 137 ng/mL
concentration at 72 h [9]: 122 ng/mL
concentration at 6 h (6 hours post-dose, bin 0-1000 ng/mL (n = 29), read-out: Plasma Concentration, Mean): 334 ng/mL
concentration at 6 h (6 hours post-dose, bin 0-1000 ng/mL (n = 29), read-out: Plasma Concentration, Median): 286 ng/mL
concentration at 6 h (6 hours post-dose, bin 1001-2000 ng/mL (n = 9), read-out: Plasma Concentration, Mean): 1360 ng/mL
concentration at 6 h (6 hours post-dose, bin 1001-2000 ng/mL (n = 9), read-out: Plasma Concentration, Median): 1270 ng/mL
concentration at 6 h (6 hours post-dose, bin >2000 ng/mL (n = 10), read-out: Plasma Concentration, Mean): 2590 ng/mL
concentration at 6 h (6 hours post-dose, bin >2000 ng/mL (n = 10), read-out: Plasma Concentration, Median): 2420 ng/mL
half-life (across the dose groups, read-out: terminal t1/2): 11 to 16 h
half-life (combined 350 and 525 mg group, read-out: t1/2, range): 11 to 22 h
Tmax (combined 350 and 525 mg group, read-out: tmax, range): 3 to 6 h
Vd/F (doses ranging from 3 mg to 525 mg, read-out: volume of distribution (Vz/F)): 58 to 166 L
Vd/F (doses up to 175 mg, read-out: mean apparent volume of distribution (Vz/F)): ~78 L
Tmax (healthy volunteers, read-out: Tmax): 4 to 6 h
half-life (healthy volunteers, read-out: terminal t1/2 (half-life) (converted)): ~15 h
Vd (1-compartmental model analysis of in vivo data in human): 0.965 L/kg
clearance (1-compartmental model analysis of in vivo data in human, read-out: CL (Human)): 0.949 mL/min/kg
